{
  "source": "patent US20260374809A1",
  "about": "“COMPOUNDS USEFUL FOR THE TREATMENT AND/OR CARE OF THE SKIN, HAIR, NAILS AND/OR MUCOUS MEMBRANES” (Lubrizol Advanced Materials, Inc., priority 2022, published 2026)",
  "key": {"[1]": {"system": "Human dermal fibroblast (HDF)", "test": "Collagen contraction assay with human dermal fibroblasts in collagen gel", "assay_type": "cell-based", "conditions": "0.01 mg/ml, 24 h post detachment, without MES; basal control = 100.0, MES = 144.4", "source_text": "It is known that a remarkable change in the mechanical properties of the skin with aging is due to reduced contractile capacity as well as reduced migration activity of fibroblasts. Healthy fibroblasts induce contraction of the collagen network through physical interactions with collagen fibers. The collagen network is essential for maintaining the firmness of the skin. The collagen contraction assay is a well-known experimental approach to measuring the cell-induced contraction of the extracellular matrix. In this assay, the capacity of fibroblasts, embedded in a collagen-based gel, to reduce the gel diameter is evaluated.\nBy improving the contractile forces, the mechanical tension can be improved, which can be associated to “lifting” effect at the scale of fibroblasts.\nThe microcurrent system was built by coupling gold electrodes (in order to avoid medium oxidation leading to cell death when current goes through) to opposite sides of 60 mm Petri dishes (separated by 4 cm). When a voltage is applied, an electric field generates between opposite positive and negative poles and current passes through the culture. During the stimulation time (2 hours), each of the 60 mm Petri dishes is connected to a voltage source that allows regulating the amount of current that passes through each of them. For these experiments, a […] current (which corresponds to approx. 67 mV/mm) was used.\nHuman dermal fibroblast (HDF) cell culture and expansion: Cells were thawed in T75 flasks and the growth medium was changed every 2 days of cell culture. After 7 days, cells were expanded to obtain a total amount of 7×10^6 cells to be used in the experiments.\nOnce finished the expansion, cultures are trypsinized and seeded at 3×10^5 cells/60 mm Petri up to a total of 10 dishes per replicate. These ten dishes correspond to one experiment (Control/-MES vs+MES) at a specific concentration. Peptide treatment was performed at 0.01 mg/ml.\nAfter an overnight (O/N) incubation to allow cell attachment, each Petri dish is treated at the corresponding concentration with 4 ml of specific medium for a total of 24 hours in both conditions (without MES and with MES). Peptide treatment on the dishes that are not stimulated with microcurrent is initiated 2 hours in advance, and their passage into 3D cultures occurs at the same time as the microcurrent stimulation of the other dishes. […]\nEach 3D culture is prepared by mixing collagen solution with the culture medium corresponding to each of the conditions (without peptide or with peptide). […] Images of collagen gel diameter are taken of each well at 24 hours post detachment and analyzed by ImageJ. […]\n[formula] • An initial area is stablished. […] Area t=0 gel […]1.86 cm^2 (Area of a well in a 24-well plate) • Quantification of Area at t=x; Ax. […]"}, "EDA-Fn": {"system": "EDA-Fn", "test": "Myofibroblast marker EDA-Fn by immunofluorescence", "assay_type": "cell-based, human", "conditions": "0.01 mg/ml; basal control = 100.0, MES = 135.7", "procedure": "EDA-Fn is an isoform of fibronectin, which serves as marker for the presence of myofibroblasts.\nAfter the experimental protocol described in EXAMPLE 8, recovery of the cells was performed by the extraction of cells from the 3D culture and their reseeding on glass coverslips. To recover cells, the collagen hydrogel was digested in agitation at 37 °C with a collagenase solution. After the digestion, cycles of centrifugation and washing were performed to eliminate collagen debris. Then, cells were seeded on coverslips in replicated as in the conditions of the 3D cultures of EXAMPLE 8. For future fluorescence analysis, cells were seeded on glass coverslips previously coated with collagen at a density of 3×10^5 fibroblasts/cm^2, let attach overnight and fixed with 4% PFA.\nGlass coverslips were used to perform EDA-Fn immunofluorescence, a marker of myofibroblasts. EDA-Fn immunofluorescence was performed in control samples (with or without MES) and after peptide treatment (PEP-1 0.01 mg/ml). Briefly, cells attached to coverslips were permeabilized by 0.5% Triton X-100 in PBS for 10 minutes at room temperature. Then, blocking solution (4% BSA in PBS) was added for 2 hours. […] Finally, green fluorescence intensity was quantified in Operetta (PerkinElmer) for each condition and normalized by the number of nuclei. […]"}},
  "note": "Where a SMILES comes first, the peptide text is derived from it.",
  "data": [
    {"molecule": "CC(C)C[C@H](N)C(=O)N1CCC[C@H]1C(=O)N[C@H](C(=O)N[C@H](C(=O)O)[C@@H](C)O)C(C)C", "note": "[PEP-1, H-Leu-Pro-Val-Thr-OH] (H-LPVT-OH)", "values": [
      {"measurement": "Collagen contraction, MEAN ± SEM", "setting": "[1]", "value": "137.5 ± 7.8", "unit": "%"},
      {"measurement": "Fold induction of EDA-Fn as myofibroblast marker, % Fold induction (FI) MEAN ± SEM", "setting": "EDA-Fn", "value": "172.3 ± 14.36", "unit": "%"}
    ]}
  ]
}
